According to US5998435A, “Use of a tachykinin antagonist for the manufacture of a medicament for the treatment of emesis” (priority 1998, dated 1999):
“Also recorded” adds a separate entry of the source. Where two headings read alike, the source gives them in different places.

How the values were obtained:
[1] = Pharmacokinetics and oral bioavailability in the rat; assay type: in vivo; conditions: plasma; for Cmax: fasted male Wistar rats; for AUC(0-inf): read-out: AUC zero to infinite time; for half-life: read-out: t1/2 terminal elimination half-life (converted); for clearance: read-out: Cl total systemic clearance; for Vd: read-out: Vd steady-state volume of distribution
Experimental: 0.5% methyl cellulose, and nanosystem vehicle, The drug was administered either PO by gavage or IV via jugular vein. Blood samples were drawn from jugular vein cannulac into syringes containing heparin before dosing and at different times up to 24 hours postdose. Plasma was harvested by centrifugation and stored at -20° C. until analysis. Plasma samples were analyzed for The Compound using a validated liquid chromatographic method.

cisplatin-induced emesis [2] = conditions: cisplatin 5 mg/kg i.p.; The Compound 10 mg/kg or ondansetron 1 mg/kg i.p. three times a day
[3] = Side effect liability: sedation or ataxia in the mouse; assay type: in vivo; conditions: up to 100 mg/kg s.c.
pancreatic amylase = assay: Secretion of pancreatic amylase in the rat; assay type: in vivo; conditions: 0.01-10 mg/kg i.v.
[4] = tested on: vehicle-induced emetic response; assay: PEG-200 vehicle-induced emetic response in the ferret; assay type: in vivo; conditions: 10 mg/kg; PEG-200 1 mL/kg i.p.
[5] = tested on: copper sulphate-induced emesis; assay: Copper sulphate-induced emesis in the ferret; conditions: Mustela putorius, 2 h, read-out: MED, copper sulphate-induced emesis
cisplatin-induced emesis [6] = assay: Cisplatin-induced acute emesis in the ferret; assay type: in vivo
Excerpt: Adult male albino Fitch ferrets (>1 kg weight) were individually housed with free access to food (SDS Diet "C", Special Diet Services Ltd, Essex, U.K.). Thirty minutes prior to the commencement of the studies, the ferrets were presented with 100 g of commercially available tinned cat food.

[7] = Blood pressure and heart rate of anaesthetized guinea-pigs; assay type: in vivo, guinea-pig; conditions: 0.1-1.0 mg/kg i.v.
NK1 recognition sites [8] = target: T1, NK1 recognition sites (Mesocricetus auratus, UniProt A0A1U7QPR6); assay: NK1 binding, hamster brain
T1 construct: NK1 recognition sites present in human cell line, guinea pig, dog, ferret, and hamster brain; from tissue; host or cells: hamster brain
T1 sequence (A0A1U7QPR6 1-407): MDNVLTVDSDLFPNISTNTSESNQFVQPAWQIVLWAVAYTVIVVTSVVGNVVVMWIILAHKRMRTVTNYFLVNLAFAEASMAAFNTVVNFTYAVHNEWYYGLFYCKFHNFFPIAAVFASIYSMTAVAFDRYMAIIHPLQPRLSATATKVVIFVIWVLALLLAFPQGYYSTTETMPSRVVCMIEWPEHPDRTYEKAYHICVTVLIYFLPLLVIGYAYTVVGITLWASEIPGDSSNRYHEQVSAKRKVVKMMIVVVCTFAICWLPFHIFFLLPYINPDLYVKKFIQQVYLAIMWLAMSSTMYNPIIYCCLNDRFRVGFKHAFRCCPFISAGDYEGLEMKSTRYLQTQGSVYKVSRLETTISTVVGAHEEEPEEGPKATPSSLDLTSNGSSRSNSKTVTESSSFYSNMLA

[9] = tested on: apomorphine-induced emesis; assay: Apomorphine-induced emesis in the ferret; conditions: Mustela putorius, 1 h, read-out: MED, apomorphine-induced emesis
[10] = Side effect liability: sedation or ataxia in the hamster; assay type: in vivo; conditions: up to 100 mg/kg s.c.
[11] = Brain penetration in the rat using HPLC assay; assay type: in vivo; conditions: for Tmax: read-out: time of highest brain concentration (converted);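 for % Dose in Brain: IV 4.5 mg/kg via tail vein or PO 21.4 mg/kg by gavage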;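 for amount in brain: IV 4.5 mg/kg via tail vein or PO 21.4 mg/kg by gavage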
Experimental: Three rats were used for each time point. Prior to blood and brain sampling, rats were anesthetized with ether. Blood samples were collected by cardiac puncture. After transcardiac perfusion with normal saline, whole brains were collected. Plasma and brain samples were analyzed using liquid chromatographic florescence detection methods. […] Total amount in brain at these times was respectively 2.5 and 0.04 μg (Tables 2 and 13). Brain to plasma concentration ratio after IV administration was highest (1.8) at 15 minutes and then decreased to a steady value approximately 0.5 at later postdose times (Table 2).

NK1 recognition sites [12] = target: NK1 recognition sites (Mustela putorius, UniProt M3YAE5); assay: NK1 binding, ferret
Chain of NK1 recognition sites (Mustela putorius, UniProt M3YAE5) (M3YAE5 1-407): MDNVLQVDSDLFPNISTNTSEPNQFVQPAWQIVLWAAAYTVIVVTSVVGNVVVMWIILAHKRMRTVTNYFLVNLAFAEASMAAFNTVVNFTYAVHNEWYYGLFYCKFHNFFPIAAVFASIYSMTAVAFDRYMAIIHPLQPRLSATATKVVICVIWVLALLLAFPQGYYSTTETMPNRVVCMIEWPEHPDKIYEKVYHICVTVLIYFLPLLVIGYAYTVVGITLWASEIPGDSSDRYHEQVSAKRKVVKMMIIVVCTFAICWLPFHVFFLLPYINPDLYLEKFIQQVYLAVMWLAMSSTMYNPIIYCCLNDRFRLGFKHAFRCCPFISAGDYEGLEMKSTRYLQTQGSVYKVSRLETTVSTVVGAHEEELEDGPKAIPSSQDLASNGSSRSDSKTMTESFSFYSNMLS

C[C@H](NC(=O)[C@@](C)(Cc1c[nH]c2ccccc12)NC(=O)OCc1cc2ccccc2o1)c1ccccc1 [The Compound, [R,S]-[2-(1H-Indol-3-yl)-1-methyl-1-(1-phenyl-ethylcarbamoyl)-ethyl]-carbamic acid benzofuran-2-ylmethyl ester]
Tmax ([1]; MC suspension PO 3.7 mg/kg): 3.5 h | Cmax ([1]; MC suspension PO 3.7 mg/kg): 15.1 ng/mL | bioavailability ([1]; MC suspension PO 3.7 mg/kg, read-out: % F absolute oral bioavailability): 4.1% | AUC(0-inf) ([1]; MC suspension PO 3.7 mg/kg): 107 ng·h/mL | half-life ([1]; MC suspension PO 3.7 mg/kg): 2.8 h | AUC(0-inf) ([1]; NANOSUSPENSION IV 4.6 mg/kg): 2790 ng·h/mL | clearance ([1]; NANOSUSPENSION IV 4.6 mg/kg): 27.8 mL/min/kg | Vd ([1]; NANOSUSPENSION IV 4.6 mg/kg): 3.7 L/kg | half-life ([1]; NANOSUSPENSION IV 4.6 mg/kg): 4.8 h | Tmax ([1]; NANOSUSPENSION PO 18.4 mg/kg): 2.3 h | Cmax ([1]; NANOSUSPENSION PO 18.4 mg/kg): 643 ng/mL | bioavailability ([1]; NANOSUSPENSION PO 18.4 mg/kg, read-out: % F absolute oral bioavailability): 47% | AUC(0-inf) ([1]; NANOSUSPENSION PO 18.4 mg/kg): 5220 ng·h/mL | half-life ([1]; NANOSUSPENSION PO 18.4 mg/kg): 2.5 h | AUC(0-inf) ([1]; PEG-400 solution IV 5 mg/kg): 3560 ng·h/mL | clearance ([1]; PEG-400 solution IV 5 mg/kg): 23.9 mL/min/kg | Vd ([1]; PEG-400 solution IV 5 mg/kg): 3 L/kg | half-life ([1]; PEG-400 solution IV 5 mg/kg): 3.5 h | Tmax ([1]; PEG-400 solution PO 20 mg/kg): 5 h | Cmax ([1]; PEG-400 solution PO 20 mg/kg): 774 ng/mL | bioavailability ([1]; PEG-400 solution PO 20 mg/kg, read-out: % F absolute oral bioavailability): 49% | AUC(0-inf) ([1]; PEG-400 solution PO 20 mg/kg): 6960 ng·h/mL | half-life ([1]; PEG-400 solution PO 20 mg/kg): 3 h | bioavailability ([1]; po, nanosuspension and PEG/EtOH/Water vehicles, read-out: absolute oral bioavailability): 47 to 49% | delayed emesis during the 3 days (3-72 hours) (cisplatin-induced emesis [2]): completely blocked | retching and vomiting during the first 3 hours of the emetic response (acute) (cisplatin-induced emesis [2]): completely blocked | ataxia [3]: failed to induce | sedation [3]: failed to induce | stimulation of secretion of pancreatic amylase (pancreatic amylase): failed | antagonism of vehicle-induced emetic response [4]: completely antagonized | minimal effective dose [5]: 30 mg/kg | antagonism of the emetic response (cisplatin-induced emesis [6]; 30 mg/kg i.p., cisplatin 10 mg/kg i.p.): complete antagonism; also recorded: completely antagonized | minimal effective dose (cisplatin-induced emesis [6]; Mustela putorius, i.p. in PEG-200, 3-30 mg/kg, 1 hour before cisplatin 10 mg/kg i.p., 4-hour observation, read-out: minimum effective dose, frequency of vomiting and retching): 3 mg/kg | blood pressure [7]: failed to affect | heart rate [7]: failed to affect | affinity to NK1 recognition sites (NK1 recognition sites [8]): nanamolar affinity | minimal effective dose [9]: 30 mg/kg | ataxia [10]: failed to induce | sedation [10]: failed to induce | total amount in brain ([11]; IV 4.5 mg/kg, 15 minutes): 2.5 µg | Brain Conc. (BC) ([11]; IV bolus 4.5 mg/kg in PEG-400/EtOH/Water, 0.25 h, 4.5 mg/kg, 15 min): 1448 ± 456 ng/g | % Dose in Brain ([11]; IV bolus 4.5 mg/kg, 0.25 h): 0.235 ± 0.051% | Amount in Brain ([11]; IV bolus 4.5 mg/kg, 0.25 h): 2711 ± 668 ng | % Dose in Brain ([11]; IV bolus 4.5 mg/kg, 2 h): 0.0098% | Amount in Brain ([11]; IV bolus 4.5 mg/kg, 2 h): 114 ± 8.6 ng | % Dose in Brain ([11]; IV bolus 4.5 mg/kg, 4 h): 0.0033 ± 0.0003% | Amount in Brain ([11]; IV bolus 4.5 mg/kg, 4 h): 40 ± 3.4 ng | % Dose in Brain ([11]; IV bolus 4.5 mg/kg, 8 h): 0.0078% | Amount in Brain ([11]; IV bolus 4.5 mg/kg, 8 h): 9.6 ng | % Dose in Brain ([11]; PO 21.4 mg/kg, 0.25 h): 0.00095 ± 0.00053% | Amount in Brain ([11]; PO 21.4 mg/kg, 0.25 h): 57 ± 31 ng | % Dose in Brain ([11]; PO 21.4 mg/kg, 2 h): 0.00291% | Amount in Brain ([11]; PO 21.4 mg/kg, 2 h): 189 ± 156 ng | total amount in brain ([11]; PO 21.4 mg/kg, 2 hours): 0.04 µg | % Dose in Brain ([11]; PO 21.4 mg/kg, 4 h): 0.0064% | Amount in Brain ([11]; PO 21.4 mg/kg, 4 h): 410 ± 333 ng | % Dose in Brain ([11]; PO 21.4 mg/kg, 8 h): 0.0013 ± 0.0012% | Amount in Brain ([11]; PO 21.4 mg/kg, 8 h): 81 ± 73 ng | % Dose in Brain ([11]; PO 21.4 mg/kg, 12 h): 0.00047 ± 0.00017% | Amount in Brain ([11]; PO 21.4 mg/kg, 12 h): 30 ng | Tmax ([11]; brain, IV 4.5 mg/kg): 0.25 h | Tmax ([11]; brain, PO 21.4 mg/kg): 2 h | Kp ([11]; brain, iv, 4.5 mg/kg, IV 4.5 mg/kg, later postdose times, read-out: brain to plasma concentration ratio, steady value): ~0.5 | concentration at 0.25 h ([11]; brain, iv, 4.5 mg/kg, IV bolus 4.5 mg/kg in PEG-400/EtOH/Water, 0.25 h, read-out: Brain Conc. (BC)): 1400 ng/g | Kp at 0.25 h ([11]; brain, iv, 4.5 mg/kg, IV bolus 4.5 mg/kg, 0.25 h, read-out: BC/PC Ratio): 1.8 | Kp at 2 h ([11]; brain, iv, 4.5 mg/kg, IV bolus 4.5 mg/kg, 2 h, read-out: BC/PC Ratio): 0.47 ± 0.11 | concentration at 2 h ([11]; brain, iv, 4.5 mg/kg, IV bolus 4.5 mg/kg, 2 h, read-out: Brain Conc. (BC)): 57 ± 4.5 ng/g | Kp at 4 h ([11]; brain, iv, 4.5 mg/kg, IV bolus 4.5 mg/kg, 4 h, read-out: BC/PC Ratio): 0.47 ± 0.05 | concentration at 4 h ([11]; brain, iv, 4.5 mg/kg, IV bolus 4.5 mg/kg, 4 h, read-out: Brain Conc. (BC)): 20 ± 1.9 ng/g | concentration at 8 h ([11]; brain, iv, 4.5 mg/kg, IV bolus 4.5 mg/kg, 8 h, N = 1, read-out: Brain Conc. (BC)): 4.8 ng/g | Kp at 8 h ([11]; brain, iv, 4.5 mg/kg, IV bolus 4.5 mg/kg, 8 h, read-out: BC/PC Ratio): 0.52 | concentration at 0.25 h ([11]; brain, po, 21.4 mg/kg, PO 21.4 mg/kg in PEG-400/EtOH/Water, 0.25 h, read-out: Brain Conc. (BC)): 31 ± 17 ng/g | Kp at 0.25 h ([11]; brain, po, 21.4 mg/kg, PO 21.4 mg/kg, 0.25 h, read-out: BC/PC Ratio): 0.27 ± 0.06 | Kp at 2 h ([11]; brain, po, 21.4 mg/kg, PO 21.4 mg/kg, 2 h, read-out: BC/PC Ratio): 0.3 ± 0.03 | concentration at 2 h ([11]; brain, po, 21.4 mg/kg, PO 21.4 mg/kg, 2 h, read-out: Brain Conc. (BC)): 96 ± 79 ng/g | Kp at 4 h ([11]; brain, po, 21.4 mg/kg, PO 21.4 mg/kg, 4 h, read-out: BC/PC Ratio): 0.29 ± 0.09 | concentration at 4 h ([11]; brain, po, 21.4 mg/kg, PO 21.4 mg/kg, 4 h, read-out: Brain Conc. (BC)): 212 ± 168 ng/g | Kp at 8 h ([11]; brain, po, 21.4 mg/kg, PO 21.4 mg/kg, 8 h, read-out: BC/PC Ratio): 0.33 ± 0.11 | concentration at 8 h ([11]; brain, po, 21.4 mg/kg, PO 21.4 mg/kg, 8 h, read-out: Brain Conc. (BC)): 41 ± 38 ng/g | Kp at 12 h ([11]; brain, po, 21.4 mg/kg, PO 21.4 mg/kg, 12 h, read-out: BC/PC Ratio): 0.41 ± 0.27 | concentration at 12 h ([11]; brain, po, 21.4 mg/kg, PO 21.4 mg/kg, 12 h, read-out: Brain Conc. (BC)): 15 ± 5 ng/g | penetration into the brain ([11]; following IV administration): fast | concentration at 0.25 h ([11]; plasma, iv, 4.5 mg/kg, IV bolus 4.5 mg/kg, 0.25 h, read-out: Plasma Conc. (PC)): 819 ± 87 ng/mL | concentration at 2 h ([11]; plasma, iv, 4.5 mg/kg, IV bolus 4.5 mg/kg, 2 h, read-out: Plasma Conc. (PC)): 124 ± 17 ng/mL | concentration at 4 h ([11]; plasma, iv, 4.5 mg/kg, IV bolus 4.5 mg/kg, 4 h, read-out: Plasma Conc. (PC)): 43 ± 5.6 ng/mL | concentration at 8 h ([11]; plasma, iv, 4.5 mg/kg, IV bolus 4.5 mg/kg, 8 h, read-out: Plasma Conc. (PC)): 5.6 ± 3.3 ng/mL | concentration at 12 h ([11]; plasma, iv, 4.5 mg/kg, IV bolus 4.5 mg/kg, 12 h, read-out: Plasma Conc. (PC)): 4 ± 1.1 ng/mL | concentration at 0.25 h ([11]; plasma, po, 21.4 mg/kg, PO 21.4 mg/kg, 0.25 h, read-out: Plasma Conc. (PC)): 126 ± 92 ng/mL | concentration at 2 h ([11]; plasma, po, 21.4 mg/kg, PO 21.4 mg/kg, 2 h, read-out: Plasma Conc. (PC)): 301 ± 244 ng/mL | concentration at 4 h ([11]; plasma, po, 21.4 mg/kg, PO 21.4 mg/kg, 4 h, read-out: Plasma Conc. (PC)): 642 ± 433 ng/mL | concentration at 8 h ([11]; plasma, po, 21.4 mg/kg, PO 21.4 mg/kg, 8 h, read-out: Plasma Conc. (PC)): 108 ± 80 ng/mL | concentration at 12 h ([11]; plasma, po, 21.4 mg/kg, PO 21.4 mg/kg, 12 h, read-out: Plasma Conc. (PC)): 45 ± 20 ng/mL | affinity to NK1 recognition sites (NK1 recognition sites [12]): nanamolar affinity
